Tested on: PC-3 multi-cell spheroids, viability
Experiment: Anticancer human tumor PC-3 cell line growth inhibition [IpAb];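 also: spheroids exposed to compounds for 7 days before readout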;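 as to viability, T/C: 100% = DMSO vehicle control wells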
Settings: for IC50: curve of first compound; for viability, T/C: stronger effect = lower value
Description: Combinatorial screen of targeted agents with ipatasertib and abemaciclib in multi-cell type tumor spheroids
A high-throughput screen of multi-cell type tumor spheroids was designed to identify active combinations of targeted small molecules and ipatasertib or abemaciclib. Complex spheroids include a stromal component modeled by human endothelial cells (HUVEC) and fibroblasts modeled by human mesenchymal stem cells (MSCs). The concentration ranges selected for each drug and investigational agent were based upon clinically achievable concentrations if the clinical Cmax of the agent was known.
Compounds. The drugs and investigational agents: ipatasertib (NSC767898), abemaciclib(NSC768073), selumetinib (NSC741078), trametinib (758246), adavosertib (NSC754352), everolimus (NSC733504), sapanisertib (NSC764658), vemurafenib (NSC761431), venetoclax (NSC766270), copanlisib (NSC809693), apelisib (NSC765974), palbociblib (NSC758247), vemurafenib (NSC761431), dabrafenib (NSC764134), ravoxertinib (NSC781343), BMS-387032 (NSC767048), sotorasib (NSC818433), talazoparib (NSC767125) and afursertib (NSC778305), were obtained from the National Cancer Institute (NCI) Developmental Therapeutics Program Chemical Repository. The FDA-approved anticancer drug set is available from the NCI Developmental Therapeutics Program. […] The stock solutions were prepared in dimethyl sulfoxide (DMSO, Sigma-Aldrich, St. Louis, MO, cat. D2650) at 800-fold the tested concentration and stored at -70 degrees C prior to their use. All drugs and investigational agents were tested over a range starting from a high concentration at or near the clinical Cmax and decreasing in half-log increments. If the clinical Cmax for an agent had not been determined, the highest concentration tested was 10 microM.
NCI60 Cell Culture. NCI60 cell lines were obtained from the NCI Developmental Therapeutics Program Tumor Repository. For each lot of cells, the Repository performed Applied Biosystems AmpFLSTR Identifiler testing with PCR amplification to confirm consistency with the published Identifier STR profile for each cell line. Cells were kept in continuous culture for no more than 20 passages. The optimal seeding densities for each of the cell lines at each time point assessed were determined prior to performing the concentration response studies. Briefly, the NCI60 human tumor lines were grown as monolayers in RPMI 1640 medium supplemented with 10% FBS and 2 mmol/L L-glutamine.
An additional 9 lines were from the NCI60 cell line panel including MDA-MB-231 breast carcinoma, MDA-MB-468 breast carcinoma, MCF7 breast carcinoma, Hs578T breast carcinoma, MALME-3M melanoma, SK-MEL-2 melanoma, SK-OV-3 ovarian carcinoma, DU-145 prostate carcinoma, PC-3 prostate carcinoma, all cell lines along with major genetic alterations are listed on Table 2. Pooled donor human umbilical vein endothelial cells (HUVEC, Lonza, cat. CC-2519) and human mesenchymal stem cells (hMSC, Lonza, cat. PT-2501) were purchased from Lonza (Walkersville, MD).
PDMR cell lines were grown in complete medium (DC medium): Dulbecco's modified Eagle's medium (DMEM)/F12 supplemented with 5% fetal bovine serum (FBS), 2 mM L-glutamine, 100 U/mL penicillin and 100 µg/ml streptomycin, 0.4 µg/ml hydrocortisone, 10 ng/ml epidermal growth factor (EGF) recombinant human protein, 24 µg/mL adenine, and 0.1 mg/mL primocin. During culture from frozen stock vials, PDMR cells were cultured in the same medium containing 10 µM Y-27632 (see Table 3). The PDCs were cultured in complete DMEM/F12 media without 10 microM Y-27632 dihydrochloride for at least two passages prior to the screen. The pooled donor HUVEC and hMSC were cultured in endothelial cell growth medium 2 (PromoCell, Heidelberg, Germany, cat. C-22011) and mesenchymal stem cell growth medium 2 (PromoCell, cat. C-28009), respectively. For all experiments, HUVEC and hMSC were used at passages </=5.
[…]

[1] = second compound 0.1 µM, first compound 0.0316 µM
[2] = second compound 0.1 µM, first compound 0.1 µM
[3] = second compound 0.1 µM, first compound 0.316 µM
[4] = second compound 0.1 µM, first compound 1 µM
[5] = second compound 0.1 µM, first compound 3.16 µM
[6] = second compound 0.1 µM, first compound 10 µM
[7] = second compound 0.316 µM, first compound 0.0316 µM
[8] = second compound 0.316 µM, first compound 0.1 µM
[9] = second compound 0.316 µM, first compound 0.316 µM
[10] = second compound 0.316 µM, first compound 1 µM
[11] = second compound 0.316 µM, first compound 3.16 µM
[12] = second compound 0.316 µM, first compound 10 µM
[13] = second compound 1 µM, first compound 0.0316 µM
[14] = second compound 1 µM, first compound 0.1 µM
[15] = second compound 1 µM, first compound 0.316 µM
[16] = second compound 1 µM, first compound 1 µM
[17] = second compound 1 µM, first compound 3.16 µM
[18] = second compound 1 µM, first compound 10 µM
[19] = second compound 3.16 µM, first compound 0.0316 µM
[20] = second compound 3.16 µM, first compound 0.1 µM
[21] = second compound 3.16 µM, first compound 0.316 µM
[22] = second compound 3.16 µM, first compound 1 µM
[23] = second compound 3.16 µM, first compound 3.16 µM
[24] = second compound 3.16 µM, first compound 10 µM
[25] = second compound 10 µM, first compound 0.0316 µM
[26] = second compound 10 µM, first compound 0.1 µM
[27] = second compound 10 µM, first compound 0.316 µM
[28] = second compound 10 µM, first compound 1 µM
[29] = second compound 10 µM, first compound 3.16 µM
[30] = second compound 10 µM, first compound 10 µM

Compound | IC50 (second compound 0.1 µM) | IC50 (second compound 0.316 µM) | IC50 (second compound 1 µM) | IC50 (second compound 3.16 µM) | IC50 (second compound 10 µM) | viability, T/C [1] | viability, T/C [2] | viability, T/C [3] | viability, T/C [4] | viability, T/C [5] | viability, T/C [6] | viability, T/C [7] | viability, T/C [8] | viability, T/C [9] | viability, T/C [13] | viability, T/C [14] | viability, T/C [19] | viability, T/C [20] | viability, T/C [25] | viability, T/C [26] | further results
C=CCn1c(=O)c2cnc(Nc3ccc(N4CCN(C)CC4)cc3)nc2n1-c1cccc(C(C)(C)O)n1 + CC(C)NCC(C(=O)N1CCN(c2ncnc3c2C(C)CC3O)CC1)c1ccc(Cl)cc1 | 114 nM | < 31.6 nM | < 31.6 nM | < 31.6 nM | < 31.6 nM | 73.4% | 48.6% | 42.4% | 20.5% | 19.6% | 21.1% | 41.3% | 31.3% | 15.4% | 20.4% | 16.2% | 14.3% | 11% | 13.1% | 11.7% | viability, T/C [10]: 14.1%; viability, T/C [11]: 13.8%; viability, T/C [12]: 17.2%; viability, T/C [15]: 10.6%; viability, T/C [16]: 9.67%; viability, T/C [17]: 9.62%; viability, T/C [18]: 11.5%; viability, T/C [21]: 8.81%; viability, T/C [22]: 7.7%; viability, T/C [23]: 8.01%; viability, T/C [24]: 7.89%; viability, T/C [27]: 8.4%; viability, T/C [28]: 6.86%; viability, T/C [29]: 7.49%; viability, T/C [30]: 7.22%
CC(C)n1nc(-c2ccc3oc(N)nc3c2)c2c(N)ncnc21 + CC(C)NCC(C(=O)N1CCN(c2ncnc3c2C(C)CC3O)CC1)c1ccc(Cl)cc1 | 1.3 nM | < 0.316 nM | < 0.316 nM | < 0.316 nM | < 0.316 nM | 10.4% | 10% |  |  |  |  | 7.3% | 6.67% |  | 5.46% | 4.64% | 3.69% | 4.13% | 2.74% | 2.74% | viability, T/C (second compound 0.1 µM, first compound 0.000316 µM): 63%; viability, T/C (second compound 0.1 µM, first compound 0.001 µM): 52.6%; viability, T/C (second compound 0.1 µM, first compound 0.00316 µM): 38.1%; viability, T/C (second compound 0.1 µM, first compound 0.01 µM): 20.2%; viability, T/C (second compound 0.316 µM, first compound 0.000316 µM): 37.3%; viability, T/C (second compound 0.316 µM, first compound 0.001 µM): 32.8%; viability, T/C (second compound 0.316 µM, first compound 0.00316 µM): 18.4%; viability, T/C (second compound 0.316 µM, first compound 0.01 µM): 11.8%; viability, T/C (second compound 1 µM, first compound 0.000316 µM): 20%; viability, T/C (second compound 1 µM, first compound 0.001 µM): 14.8%; viability, T/C (second compound 1 µM, first compound 0.00316 µM): 9.96%; viability, T/C (second compound 1 µM, first compound 0.01 µM): 7.81%; viability, T/C (second compound 3.16 µM, first compound 0.000316 µM): 12%; viability, T/C (second compound 3.16 µM, first compound 0.001 µM): 10.3%; viability, T/C (second compound 3.16 µM, first compound 0.00316 µM): 8.27%; viability, T/C (second compound 3.16 µM, first compound 0.01 µM): 5.41%; viability, T/C (second compound 10 µM, first compound 0.000316 µM): 12%; viability, T/C (second compound 10 µM, first compound 0.001 µM): 10.2%; viability, T/C (second compound 10 µM, first compound 0.00316 µM): 7.33%; viability, T/C (second compound 10 µM, first compound 0.01 µM): 3.83%
CC1(C)CCC(CN2CCN(c3ccc(C(=O)NS(=O)(=O)c4ccc(NCC5CCOCC5)c([N+](=O)[O-])c4)c(Oc4cnc5[nH]ccc5c4)c3)CC2)=C(c2ccc(Cl)cc2)C1 + CC(C)NCC(C(=O)N1CCN(c2ncnc3c2C(C)CC3O)CC1)c1ccc(Cl)cc1 | 4270 nM | < 31.6 nM | < 31.6 nM | < 31.6 nM | < 31.6 nM | 69.2% | 63.2% | 67.6% | 63.2% | 69% | 3.74% | 43% | 46.8% | 42.7% | 22% | 20.5% | 14.5% | 15.3% | 13.7% | 12.7% | viability, T/C [10]: 45.3%; viability, T/C [11]: 35.7%; viability, T/C [12]: 3.22%; viability, T/C [15]: 22.4%; viability, T/C [16]: 19%; viability, T/C [17]: 15.8%; viability, T/C [18]: 3.59%; viability, T/C [21]: 12.4%; viability, T/C [22]: 13.4%; viability, T/C [23]: 12.7%; viability, T/C [24]: 3.12%; viability, T/C [27]: 14.1%; viability, T/C [28]: 11.5%; viability, T/C [29]: 10.7%; viability, T/C [30]: 0.81%
CCCS(=O)(=O)Nc1ccc(F)c(C(=O)c2c[nH]c3ncc(-c4ccc(Cl)cc4)cc23)c1F + CC(C)NCC(C(=O)N1CCN(c2ncnc3c2C(C)CC3O)CC1)c1ccc(Cl)cc1 | 9890 nM | < 31.6 nM | < 31.6 nM | < 31.6 nM | < 31.6 nM | 81.9% | 87.5% | 95.2% | 94.1% | 83.8% | 49.3% | 45.2% | 43.8% | 46.4% | 25% | 22.6% | 13.6% | 15.6% | 12.8% | 13% | viability, T/C [10]: 52.7%; viability, T/C [11]: 50.3%; viability, T/C [12]: 27%; viability, T/C [15]: 27%; viability, T/C [16]: 28.4%; viability, T/C [17]: 26.3%; viability, T/C [18]: 15.1%; viability, T/C [21]: 16.8%; viability, T/C [22]: 17.2%; viability, T/C [23]: 14.5%; viability, T/C [24]: 10.5%; viability, T/C [27]: 15%; viability, T/C [28]: 14.9%; viability, T/C [29]: 12.6%; viability, T/C [30]: 7.8%
